15 compounds from patent US20260053932A1, “COMPOUNDS AND METHODS FOR THE TARGETED DEGRADATION OF ANDROGEN RECEPTOR AND ASSOCIATED METHODS OF USE” (Arvinas Operations, Inc., priority 2020, published 2026) can be followed below.

Read-outs that look alike come from different tables or passages of the source. Bounds are passed on as bounds.

This test concerns androgen receptor (AR) in LNCaP and/or VCaP cells. Briefly: Androgen Receptor ELISA assay (AR degradation). It counts as cell-based. The gist of the method:
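VCaP cells grown ≥3 days, then treated 5 h with compound in media containing 1 nM R1881 (10× stock). Cells lysed and AR quantified by sandwich ELISA (mouse AR detection Ab, HRP anti-mouse, TMB). DC50 and Dmax derived from AR degradation.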
Background: An ELISA detects its analyte on a solid surface through an enzyme-linked reagent.

The mark [1] stands for this setting: degradation of AR ELISA in LNCaP and/or VCaP cells, Table 2C, read-out: DC50 Code*.
Setting [2] is: degradation of AR ELISA in LNCaP and/or VCaP cells, read-out: DC50 Code*.

`COCCN(CC1CCN(c2cnc(C(=O)N[C@H]3C(C)(C)[C@H](Oc4cc(C)c(C#N)c(C)c4)C3(C)C)cn2)CC1)[C@H]1C[C@H](Oc2cc3c(cc2OC)C(=O)N(C2CCC(=O)NC2=O)C3=O)C1` (mixture of isomers) [compound 222, rac-N-((1r,3r)-3-(4-cyano-3,5-dimethylphenoxy)-2,2,4,4-tetramethylcyclobutyl)-5-(4-((((1r,3r)-3-((2-(2,6-dioxopiperidin-3-yl)-6-methoxy-1,3-dioxoisoindolin-5-yl)oxy)cyclobutyl)(2-methoxyethyl)amino)methyl)piperidin-1-yl)pyrazine-2-carboxamide]: the DC50 (as a rule, the midpoint of the concentration-degradation curve) under setting [1] was less than 1 nM. As for `COCCN(CC1CCN(c2cnc(C(=O)N[C@H]3C(C)(C)[C@H](Oc4cc(C)c(C#N)c(C)c4)C3(C)C)cn2)CC1)[C@H]1C[C@H](Oc2ccc3c(c2)C(=O)N(C2CCC(=O)NC2=O)C3)C1` (mixture of isomers) [compound 223, rac-N-((1r,3r)-3-(4-cyano-3,5-dimethylphenoxy)-2,2,4,4-tetramethylcyclobutyl)-5-(4-((((1r,3r)-3-((2-(2,6-dioxopiperidin-3-yl)-3-oxoisoindolin-5-yl)oxy)cyclobutyl)(2-methoxyethyl)amino)methyl)piperidin-1-yl)pyrazine-2-carboxamide], the DC50 under setting [1] is less than 1 nM. On the same count and under the same terms, to `Cc1cc(O[C@H]2C(C)(C)[C@H](NC(=O)c3cnc(N4CCC(CN(C)[C@H]5C[C@H](Oc6ccc7c(c6)C(=O)N(C6CCC(=O)NC6=O)C7=O)C5)CC4)cn3)C2(C)C)cc(C)c1C#N` (mixture of isomers) [compound 224, rac-N-((1r,3r)-3-(4-cyano-3,5-dimethylphenoxy)-2,2,4,4-tetramethylcyclobutyl)-5-(4-((((1r,3r)-3-((2-(2,6-dioxopiperidin-3-yl)-1,3-dioxoisoindolin-5-yl)oxy)cyclobutyl) (methyl)amino)methyl)piperidin-1-yl)pyrazine-2-carboxamide] belongs less than 1 nM; to `Cc1cc(O[C@H]2C(C)(C)[C@H](NC(=O)c3ccc(N4CCC(CN(CCO)[C@H]5C[C@H](Oc6ccc7c(c6)C(=O)N(C6CCC(=O)NC6=O)C7=O)C5)CC4)cc3)C2(C)C)cc(C)c1C#N` (mixture of isomers) [compound 225, rac-N-((1r,3r)-3-(4-cyano-3,5-dimethylphenoxy)-2,2,4,4-tetramethylcyclobutyl)-4-(4-((((1r,3r)-3-((2-(2,6-dioxopiperidin-3-yl)-1,3-dioxoisoindolin-5-yl)oxy)cyclobutyl)(2-hydroxyethyl)amino)methyl)piperidin-1-yl)benzamide], less than 1 nM. For the compound `COc1cc(O[C@H]2C[C@H](N(CC3CCN(c4cnc(C(=O)N[C@H]5C(C)(C)[C@H](Oc6ccc(C#N)c(Cl)c6)C5(C)C)cn4)CC3)C(C)C)C2)cc2c1CN(C1CCC(=O)NC1=O)C2=O` (mixture of isomers) [compound 226, rac-N-((1r,3r)-3-(3-chloro-4-cyanophenoxy)-2,2,4,4-tetramethylcyclobutyl)-5-(4-((((1r,3r)-3-((2-(2,6-dioxopiperidin-3-yl)-7-methoxy-3-oxoisoindolin-5-yl)oxy)cyclobutyl) (isopropyl)amino)methyl)piperidin-1-yl)pyrazine-2-carboxamide], the 50% degradation concentration (DC50) under setting [1] was less than 1 nM. Consider `Cc1cc(O[C@H]2C(C)(C)[C@H](NC(=O)c3ccc(N4CCC5(CC4)CN([C@H]4C[C@H](Oc6ccc7c(c6)C(=O)N(C6CCC(=O)NC6=O)C7=O)C4)CCO5)cc3)C2(C)C)cc(C)c1C#N` (mixture of isomers) [compound 228, rac-N-((1r,3r)-3-(4-cyano-3,5-dimethylphenoxy)-2,2,4,4-tetramethylcyclobutyl)-4-(4-((1r,3r)-3-((2-(2,6-dioxopiperidin-3-yl)-1,3-dioxoisoindolin-5-yl)oxy)cyclobutyl)-1-oxa-4,9-diazaspiro[5.5]undecan-9-yl)benzamide], for which, under setting [1], the DC50 is less than 1 nM. The same measure, in the same setting: to `Cc1cc(O[C@H]2C(C)(C)[C@H](NC(=O)c3cnc(N4CCC(CN(CCO)[C@H]5C[C@H](Oc6ccc7c(c6)C(=O)N(C6CCC(=O)NC6=O)C7=O)C5)CC4)cn3)C2(C)C)cc(C)c1C#N` (mixture of isomers) [compound 229, rac-N-((1r,3r)-3-(4-cyano-3,5-dimethylphenoxy)-2,2,4,4-tetramethylcyclobutyl)-5-(4-((((1r,3r)-3-((2-(2,6-dioxopiperidin-3-yl)-1,3-dioxoisoindolin-5-yl)oxy)cyclobutyl)(2-hydroxyethyl)amino)methyl)piperidin-1-yl)pyrazine-2-carboxamide] belongs less than 1 nM; to `COCCN(CC1CCN(c2nc(C)c(C(=O)N[C@H]3C(C)(C)[C@H](Oc4ccc(C#N)c(OC)c4)C3(C)C)c(C)n2)CC1)[C@H]1C[C@H](Oc2cc(OC)c3c(c2)C(=O)N(C2CCC(=O)NC2=O)C3=O)C1` (mixture of isomers) [compound 232, rac-N-((1r,3r)-3-(4-cyano-3-methoxyphenoxy)-2,2,4,4-tetramethylcyclobutyl)-2-(4-((((1r,3r)-3-((2-(2,6-dioxopiperidin-3-yl)-7-methoxy-1,3-dioxoisoindolin-5-yl)oxy)cyclobutyl)(2-methoxyethyl)amino)methyl)piperidin-1-yl)-4,6-dimethylpyrimidine-5-carboxamide], less than 1 nM; to `Cc1cc(O[C@H]2C(C)(C)[C@H](NC(=O)c3cnc(N4CCC5(CC4)CN([C@H]4C[C@H](Oc6ccc7c(c6)C(=O)N(C6CCC(=O)NC6=O)C7=O)C4)CCO5)cn3)C2(C)C)cc(C)c1C#N` (mixture of isomers) [compound 236, rac-N-((1r,3r)-3-(4-cyano-3,5-dimethylphenoxy)-2,2,4,4-tetramethylcyclobutyl)-5-(4-((1r,3r)-3-((2-(2,6-dioxopiperidin-3-yl)-1,3-dioxoisoindolin-5-yl)oxy)cyclobutyl)-1-oxa-4,9-diazaspiro[5.5]undecan-9-yl)pyrazine-2-carboxamide], less than 1 nM.

`CCOc1cc(O[C@H]2C[C@H](N(CC3CCN(c4cnc(C(=O)N[C@H]5C(C)(C)[C@H](Oc6cc(C)c(C#N)c(C)c6)C5(C)C)cn4)CC3)C(C)C)C2)cc2c1C(=O)N(C1CCC(=O)NC1=O)C2=O` (mixture of isomers) [compound 238, rac-N-((1r,3r)-3-(4-cyano-3,5-dimethylphenoxy)-2,2,4,4-tetramethylcyclobutyl)-5-(4-((((1r,3r)-3-((2-(2,6-dioxopiperidin-3-yl)-7-ethoxy-1,3-dioxoisoindolin-5-yl)oxy)cyclobutyl) (isopropyl)amino)methyl)piperidin-1-yl)pyrazine-2-carboxamide]: under setting [1], the DC50 was in the range of 1 to 10 nM. For `COCCN(CC1CCN(c2nc(C)c(C(=O)N[C@H]3C(C)(C)[C@H](Oc4ccc(C#N)c(OC)c4)C3(C)C)c(C)n2)CC1)[C@H]1C[C@H](Oc2ccc3c(c2)C(=O)N(C2CCC(=O)NC2=O)C3=O)C1` (mixture of isomers) [compound 240, rac-N-((1r,3r)-3-(4-cyano-3-methoxyphenoxy)-2,2,4,4-tetramethylcyclobutyl)-2-(4-((((1r,3r)-3-((2-(2,6-dioxopiperidin-3-yl)-1,3-dioxoisoindolin-5-yl)oxy)cyclobutyl)(2-methoxyethyl)amino)methyl)piperidin-1-yl)-4,6-dimethylpyrimidine-5-carboxamide], the DC50 under setting [2] lay in the range of 1 to 10 nM.

For `CC1(C)[C@H](NC(=O)c2ccc(N3CCC(CN4CCN(c5ccc6c(c5)C(=O)N(C5(C#N)CCC(=O)NC5=O)C6)CC4)CC3)cc2)C(C)(C)[C@H]1Oc1ccc(C#N)c(Cl)c1` (mixture of isomers) [compound 241, rac-N-((1r,3r)-3-(3-chloro-4-cyanophenoxy)-2,2,4,4-tetramethylcyclobutyl)-4-(4-((4-(2-(3-cyano-2,6-dioxopiperidin-3-yl)-3-oxoisoindolin-5-yl)piperazin-1-yl)methyl)piperidin-1-yl)benzamide], the DC50 under setting [2] lay in the range of 1 to 10 nM. Take `COc1cc(O[C@H]2C(C)(C)[C@H](NC(=O)c3cnc(N4CCC(CN(CC[S+]([O-])CC5(C)COC5)[C@H]5C[C@H](Oc6ccc7c(c6)C(=O)N(C6CCC(=O)NC6=O)C7=O)C5)CC4)cn3)C2(C)C)ccc1C#N` (mixture of isomers) [compound 243, rac-N-((1r,3r)-3-(4-cyano-3-methoxyphenoxy)-2,2,4,4-tetramethylcyclobutyl)-5-(4-((((1r,3r)-3-((2-(2,6-dioxopiperidin-3-yl)-1,3-dioxoisoindolin-5-yl)oxy)cyclobutyl)(2-(((3-methyloxetan-3-yl)methyl)sulfinyl)ethyl)amino)methyl)piperidin-1-yl)pyrazine-2-carboxamide]: the DC50 under setting [2] was 1 to 10 nM.

Turning to `Cc1cc(O[C@H]2C(C)(C)[C@H](NC(=O)c3cnc(N4CCC(CN(C(C)C)[C@H]5C[C@H](Oc6ccc7c(c6)C(=O)N(C6CCC(=O)N(COP(=O)(O)OCOC(=O)OC(C)C)C6=O)C7=O)C5)CC4)cn3)C2(C)C)cc(C)c1C#N` (mixture of isomers) [compound 247, rac-((((3-(5-((1r,3r)-3-(((1-(5-(((1r,3r)-3-(4-cyano-3,5-dimethylphenoxy)-2,2,4,4-tetramethylcyclobutyl)carbamoyl)pyrazin-2-yl)piperidin-4-yl)methyl)(isopropyl)amino)cyclobutoxy)-1,3-dioxoisoindolin-2-yl)-2,6-dioxopiperidin-1-yl)methoxy)(hydroxy)phosphoryl)oxy)methyl isopropyl carbonate], under setting [2], the DC50 was greater than 100 nM. Consider `COc1cc(O[C@H]2C[C@H](N(CC3CCN(c4ncc(C(=O)NC5CC6(C5)CC(Oc5cc(C)c(C#N)c(C)c5)C6)cn4)CC3)C(C)C)C2)cc2c1C(=O)N(C1CCC(=O)NC1=O)C2=O` (stereo partly drawn) [Compound 1, N-(6-(4-cyano-3,5-dimethylphenoxy)spiro [3.3]heptan-2-yl)-2-(4-((((1r,3r)-3-((2-(2,6-dioxopiperidin-3-yl)-7-methoxy-1,3-dioxoisoindolin-5-yl)oxy)cyclobutyl) (isopropyl)amino)methyl)piperidin-1-yl)pyrimidine-5-carboxamide], for which the DC50 (LNCaP and/or VCaP cells, 5 hours incubation, media with R1881, read-out: DC50 Code* (degradation of AR ELISA)) fell in the range of 1 to 10 nM.
